This is an account of results in ChEMBL document CHEMBL1201862, “PubChem BioAssay data set” (2004).

What all share (experiment): NCI tumour cell line growth inhibition, 48 h
Assay [1] deals with A498.
The test system of assay [2] is DU-145.
For assay [3], the system named is EKVX.
For assay [4], the system named is HCC 2998.
The test system of assay [5] is HCT-15.
For assay [6], the system named is HOP-92.
For assay [7], the system named is HT-29.
Assay [8] has as its system K562.
Assay [9] concerns M14.
For assay [10], the system named is MCF7.
Assay [11] relates to NCI-H460.
Assay [12] concerns NCI/ADR-RES.
For assay [13], the system named is PC-3.
For assay [14], the system named is RXF 393.
For assay [15], the system named is SF-295.
Assay [16] deals with SK-MEL-2.
The test system of assay [17] is SW-620.
The test system of assay [18] is U-251.
Assay [19] has as its system SR.

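Compound exposure: 48 hours, 5 concentrations, 96-well plates. GI50 marks 50% less growth.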 Active and inactive are the calls of the source. Cut-off read from the data, not from the text of the source: active = GI50 up to about 1.1 µM and inactive = higher.

`O=C1CC(c2cccc(F)c2)Nc2cc3c(cc21)OCO3` (stereo unspecified): the GI50 in assay [1] was < 0.01 µM (active); in [2], 0.0385 µM (active); in assay [3] it was < 0.01 µM (active); in [4], 0.0593 µM (active); in assay [5], 0.0394 µM; in [6] it was 0.531 µM (active). Moreover, the GI50 in assay [7] is 0.0237 µM (active); in assay [8], < 0.01 µM (active); in assay [9], 0.0267 µM (active); in assay [10] it was 0.0472 µM (active); in assay [11], 0.0418 µM (active); in [12], 0.027 µM (active). In addition, the GI50 in [13] is 0.0301 µM (active); in assay [14] it was 0.0247 µM (active); in assay [15], 0.042 µM (active); in assay [16] it was 0.0356 µM (active); in assay [17], 0.0393 µM (active); in assay [18], 0.0344 µM (active).
As to `COc1cc2c(c(OC)c1OC)-c1c(cc3c(c1OC)OCO3)CC(C)C(C)(O)C2OC(=O)c1ccccc1` (stereo unspecified), the GI50 in assay [1] was 39.8 µM (inactive); in assay [2], 69.8 µM (inactive); in assay [3], 36 µM (inactive); in assay [4], 22.9 µM (inactive); in [5] it was 33.2 µM; in [6], 12.2 µM (inactive). In addition, the GI50 is 25.8 µM (inactive) in assay [7]; 46.3 µM (inactive) in assay [8]; 34.4 µM (inactive) in assay [9]; 44.9 µM (inactive) in assay [10]; 33.3 µM (inactive) in assay [11]; 26.6 µM (inactive) in [13]. The GI50 in assay [14] is 27.9 µM (inactive); in [15], 39.4 µM (inactive); in assay [16], 25 µM (inactive); in assay [19], 17.7 µM (inactive); in assay [17], 71.8 µM (inactive); in [18], 39.9 µM (inactive).
Consider `O=C(Nc1ccccc1F)c1cc2ccc(O)cc2o/c1=N\c1cccc(C(F)(F)F)c1`, for which the GI50 in [1] is 7.4 µM (inactive); in assay [2], 4.04 µM (inactive); in assay [3] it was 3.76 µM (inactive); in assay [4] it was 8.2 µM (inactive); in [5] it was 3.59 µM; in assay [7], 32.1 µM (inactive). Besides, the GI50 is 2.85 µM (inactive) in [8]; 5.18 µM (inactive) in [9]; 2.94 µM (inactive) in assay [10]; 3.22 µM (inactive) in assay [11]; 3.22 µM (inactive) in assay [12]; 3.76 µM (inactive) in assay [13]. In addition, the GI50 in assay [15] is 4.99 µM (inactive); in [16] it was 4.36 µM (inactive); in assay [19] it was 3.31 µM (inactive); in assay [17], 3.08 µM (inactive); in [18] it was 3.73 µM (inactive).
For the compound `Cc1cccc(/C=N/NC(=S)N2CCCC2)n1`, the GI50 in assay [1] was 0.347 µM (active); in assay [2], 0.373 µM (active); in assay [3] it was 0.304 µM (active); in assay [4], 0.78 µM (active); in assay [5], 0.138 µM; in [6] it was 1.65 µM (inactive). Also, the GI50 in assay [7] is 0.0528 µM (active); in assay [8], 0.2 µM (active); in [9] it was 0.133 µM (active); in [10], 2.91 µM (inactive); in assay [11] it was 0.337 µM (active); in assay [12], 0.166 µM (active). The GI50 was 0.346 µM (active) in assay [13]; 0.266 µM (active) in assay [15]; 1.01 µM (active) in assay [16]; 0.0509 µM (active) in [19]; 0.188 µM (active) in assay [17]; 0.366 µM (active) in assay [18].
Take `Fc1cc(-c2ncc(Cl)cc2Cl)c2cccccc1-2`: the GI50 in [2] is > 100 µM (inactive); in [3], > 100 µM (inactive); in [4] it was > 100 µM (inactive); in assay [5], over 100 µM; in [7], 76.2 µM (inactive); in [9], 82.6 µM (inactive). The GI50 was 35.7 µM (inactive) in assay [10]; > 100 µM (inactive) in assay [11]; > 100 µM (inactive) in assay [12]; > 100 µM (inactive) in [13]; 92.5 µM (inactive) in assay [14]; > 100 µM (inactive) in [15].
For the compound `CCn1c(=O)c2c3ccc(OC(C)=O)cc3[nH]c2c2ccc(OC(C)=O)cc21`, the GI50 is 18.5 µM (inactive) in assay [2]; 23.7 µM (inactive) in [4]; 62.2 µM in assay [5]; 43.5 µM (inactive) in [6]; 43.3 µM (inactive) in assay [7]; 24 µM (inactive) in assay [8]. The GI50 in assay [9] is 45.3 µM (inactive); in assay [10] it was 23.1 µM (inactive); in [11] it was 29 µM (inactive); in assay [12] it was > 100 µM (inactive); in [13] it was 26.9 µM (inactive); in assay [14] it was 34.2 µM (inactive). For the same compound, the GI50 is 36.1 µM (inactive) in [15], 36.6 µM (inactive) in assay [19], 30.7 µM (inactive) in [17] and 37.2 µM (inactive) in [18].
As for `COc1ccc(N2C(=O)C3c4[nH]c5ccc(F)cc5c4C4CCC(c5ccccc5)CC4C3C2=O)cc1` (stereo unspecified), the GI50 was 15.7 µM (inactive) in [1]; 66.2 µM (inactive) in [2]; 24.3 µM (inactive) in [3]; 39.9 µM (inactive) in [4]; 19.7 µM in assay [5]; 14.5 µM (inactive) in assay [6]. Besides, the GI50 is 16 µM (inactive) in assay [7]; 3.44 µM (inactive) in assay [8]; 12.9 µM (inactive) in assay [9]; 18.7 µM (inactive) in [10]; 10 µM (inactive) in [11]; 45.9 µM (inactive) in assay [12]. For the same compound, the GI50 in assay [13] was 14.2 µM (inactive); in [15], 31 µM (inactive); in assay [16], 21.8 µM (inactive); in assay [19], 6.93 µM (inactive); in assay [17], 8.38 µM (inactive); in [18] it was 9.98 µM (inactive).
Regarding `COc1ccc2[nH]c3c(c2c1)CCc1c(OC)cccc1-3`, the GI50 in [1] was > 100 µM (inactive); in [2], > 100 µM (inactive); in [3], > 100 µM (inactive); in assay [4] it was > 100 µM (inactive); in [5] it was over 100 µM; in assay [6], > 100 µM (inactive). Moreover, the GI50 was > 100 µM (inactive) in assay [7]; 53.6 µM (inactive) in assay [8]; > 100 µM (inactive) in assay [9]; > 100 µM (inactive) in [10]; > 100 µM (inactive) in assay [11]; > 100 µM (inactive) in assay [12]. For the same compound, the GI50 in assay [13] is > 100 µM (inactive); in assay [15] it was > 100 µM (inactive); in [16] it was > 100 µM (inactive); in assay [19], > 100 µM (inactive); in assay [17], > 100 µM (inactive); in [18], 28.8 µM (inactive).
For `COc1ccc(C)cc1NC(=S)C#N`, the GI50 in assay [1] was > 100 µM (inactive); in assay [2], > 100 µM (inactive); in assay [4], 44.6 µM (inactive); in assay [5], 27.5 µM; in assay [6], > 100 µM (inactive); in [7], 30.8 µM (inactive). Besides, the GI50 was > 100 µM (inactive) in [8]; 30.5 µM (inactive) in assay [9]; 32.2 µM (inactive) in assay [10]; 27.4 µM (inactive) in assay [12]; 26.4 µM (inactive) in assay [13]; 28.1 µM (inactive) in assay [14]. The GI50 in [15] is 31.9 µM (inactive); in assay [16] it was 29.2 µM (inactive); in assay [17] it was > 100 µM (inactive); in assay [18], > 100 µM (inactive).
Regarding `[N-]=[N+]=CC(=O)OC1CCOCC1`, the GI50 is > 100 µM (inactive) in [1]; > 100 µM (inactive) in assay [2]; > 100 µM (inactive) in [3]; > 100 µM (inactive) in [4]; over 100 µM in [5]; > 100 µM (inactive) in assay [6]. Further, the GI50 in assay [7], in assay [8], in assay [10], in assay [11], in assay [13] and in assay [14] was > 100 µM (inactive) each time. Moreover, the GI50 in assay [15], in [16], in assay [19], in assay [17] and in assay [18] was > 100 µM (inactive) throughout.
On to `COc1cc2c(cc1OC)C1=Cc3ccc(OC)c(OC)c3C(C#N)N1CC2` (stereo unspecified), for which the GI50 in assay [1] was > 100 µM (inactive); in assay [2] it was 39.7 µM (inactive); in assay [3], 96.8 µM (inactive); in assay [4] it was 18.5 µM (inactive); in assay [5] it was over 100 µM; in assay [7], 33.7 µM (inactive). Also, the GI50 in assay [9] was 50.2 µM (inactive); in [10] it was 29.7 µM (inactive); in assay [11], 31.7 µM (inactive); in assay [12], > 100 µM (inactive); in assay [13], 32.4 µM (inactive); in assay [15], 37.1 µM (inactive). Further, the GI50 in assay [16] was 19.7 µM (inactive); in assay [17], 47.6 µM (inactive); in assay [18] it was 21.6 µM (inactive).
As for `O=C(Nc1cc2c(=O)[nH]c3ccccc3c2oc1=O)c1cnccn1`, the GI50 in [2] was > 100 µM (inactive); in assay [3] it was > 100 µM (inactive); in assay [4], > 100 µM (inactive); in assay [5], over 100 µM; in [6] it was > 100 µM (inactive); in assay [7] it was > 100 µM (inactive). The GI50 in assay [8], in [9], in assay [10], in [11], in [12] and in assay [13] was > 100 µM (inactive) throughout. The GI50 in [14], in [15], in [16], in assay [19], in assay [17] and in assay [18] was > 100 µM (inactive) each time.
